Results: US10993935B2, “Compositions and methods for treatment of lung infections” (priority 2018, dated 2021)
Where a name gives a salt, the structure may show the parent alone.

Legend:
[1] = Adverse effects after nebulization in mice; type: in vivo, C57BL/6 mice; details: single nebulized dose of 5 ml of 100% DMSO; C57BL/6 mice (n=8)
Procedure: Drug Nebulization. C57BL/6 mice (n=8) were first exposed to 5 mL DMSO for 10 minutes to determine any adverse effects that may occur from using DMSO. Mice (n=16) were then exposed to TOB in 0.225% saline or RFX in DMSO via nebulization until the 5 mL drug mixture was depleted—typically 10-15 minutes. Nebulization was conducted using the pressure-based nebulizer and chamber purchased from Kent Scientific (Torrington, Conn.). TOB was nebulized at concentrations of 100 mg (n=4) or 400 mg (n=4) in 5 mL of 0.225% saline. RFX was nebulized at concentrations of 100 mg (n=4) or 400 mg (n=4) in 5 ml of 100% dimethyl sulfoxide. Mice were sacrificed immediately after nebulization via CO2 chamber. Lungs were then collected and homogenized. TOB concentrations were measured using ELISA. RFX concentrations were measured via HPLC.
The potential adverse effects of using DMSO were first assessed by nebulizing DMSO alone to a group of C57BL/6 mice (n=8). This type of mice was used due to their natural resistance against infection based on our previous studies. […] To determine the dosage of each drug received by the mice, the lungs were homogenized and drug concentrations of TOB and RFX were determined via ELISA and HPLC, respectively. […] The droplet size for both TOB and RFX were determined to be identical with the average droplet size for TOB and RFX being 5.07 μm and 5.02 μm, respectively. […]

[2] = system: P. aeruginosa PAO581 (PAO1mucA25); test: NIH drug library screen for inhibition of growth, mucoidy and PalgD-lacZ colour; type: cell-based, Pseudomonas aeruginosa; details: for Growth 2 μM / Mucoidy 2 μM / Color 2 μM: drug at 2 μM; for Growth 2 μM / Growth 10 μM / Growth 50 μM: PAO581 on PIA; for Growth 10 μM / Mucoidy 10 μM / Color 10 μM: drug at 10 μM; for Growth 50 μM / Mucoidy 50 μM / Color 50 μM: drug at 50 μM; for Mucoidy 10 μM / Mucoidy 50 μM / Mucoidy 2 μM: PAO581 with pLP170-PalgD-lacZ on PIA + X-gal; for Color 10 μM / Color 50 μM / Color 2 μM: X-gal colour of PalgD-lacZ reporter, 'Light' wraps to 'Light Blue'

| SMILES | adverse effects [1] | Growth 2 μM [2] | Growth 10 μM [2] | Growth 50 μM [2] | Mucoidy 10 μM [2] | Color 10 μM [2] | Mucoidy 50 μM [2] | Color 50 μM [2] | Mucoidy 2 μM [2] | Color 2 μM [2] |
| --- | --- | --- | --- | --- | --- | --- | --- | --- | --- | --- |
| C[S+](C)[O-] [DMSO, dimethyl sulfoxide] | no adverse effects | – | – | – | – | – | – | – | – | – |
| NC1CCN(c2nc3c(cc2F)c(=O)c(C(=O)O)cn3-c2ccc(F)cc2F)C1 (stereo not drawn) [Tosufloxacin Tosilate] | – | Inhibited | Inhibited | Inhibited | – | – | – | – | – | – |
| CN1CCN(c2c(F)cc3c(=O)c(C(=O)O)cn4c3c2SCC4)CC1 [Rufloxacin Monohydrate] | – | – | Yes | Yes | High | Blue | Inhibited | Light | – | – |
| C[C@H]1COc2c(C3(N)CC3)c(F)cc3c(=O)c(C(=O)O)cn1c23 [Pazufloxacin] | – | Inhibited | Inhibited | Inhibited | – | – | – | – | – | – |
| CO[C@H]1/C=C/O[C@@]2(C)Oc3c(C)c(O)c4c(O)c(c(/C=N/N5CCN(C6CCCC6)CC5)c(O)c4c3C2=O)NC(=O)/C(C)=C\C=C\[C@H](C)[C@H](O)[C@@H](C)[C@@H](O)[C@@H](C)[C@H](OC(C)=O)[C@@H]1C [Rifapentine] | – | Yes | Reduced | Inhibited | Reduced | Light | – | – | High | Blue |
| CCN1CCN(c2cc3c(cc2F)c(=O)c(C(=O)O)cn3C2CC2)CC1 [Enrofloxacin] | – | Inhibited | Inhibited | Inhibited | – | – | – | – | – | – |
| CCCCCCCCCOc1ccc2[nH]cc(CCN)c2c1 [5-Nonyloxyltryptamine] | – | – | Yes | Reduced | High | Blue | High | Blue | – | – |
| CC[C@H]1OC(=O)[C@H](C)[C@@H](O[C@H]2C[C@@](C)(OC)[C@@H](O)[C@H](C)O2)[C@H](C)[C@@H](O[C@@H]2O[C@H](C)C[C@H](N(C)C)[C@H]2O)[C@](C)(OC)C[C@@H](C)C(=O)[C@H](C)[C@@H](O)[C@]1(C)O [Clarithromycin] | – | Yes | Reduced | Yes | High | Blue | Inhibited | Light | High | Blue |
| COc1c(N2C[C@@H]3CCCN[C@@H]3C2)c(F)cc2c(=O)c(C(=O)O)cn(C3CC3)c12 [Moxifloxacin Hydrochloride] | – | Reduced | Inhibited | Inhibited | – | – | – | – | Reduced | Light |
| CCCCCCNC(=O)n1cc(F)c(=O)[nH]c1=O [Carmofur] | – | Yes | Reduced | Reduced | Inhibited | Clear | Inhibited | Clear | High | Light |
| CO[C@H]1/C=C/O[C@@]2(C)Oc3c(C)c(O)c4c(c3C2=O)C2=NC3(CCN(CC(C)C)CC3)NC2=C(NC(=O)/C(C)=C\C=C\[C@H](C)[C@H](O)[C@@H](C)[C@@H](O)[C@@H](C)[C@H](OC(C)=O)[C@@H]1C)C4=O [Rifabutin] | – | Reduced | Inhibited | Inhibited | – | – | – | – | High | Light |
